Reference: paper PMC7481290, “Halogenation as a tool to tune antimicrobial activity of peptoids” (Scientific Reports, 2020)
≈ marks a conversion by molar mass, not a printed value. Non-standard residues stand in square brackets, D forms with d. Residues, ends and D or L forms follow the SMILES beside them. N(4-Br-benzyl)Gly = O=C(O)CNCc1ccc(Br)cc1; NBzl(4-I)Gly = O=C(O)CNCc1ccc(I)cc1; Nphe = O=C(O)CNCc1ccccc1; Nlys = NCCCCNCC(=O)O

Key:
[1] = tested on: Methicillin-resistant S. epidermidis ATCC 51625; assay type: cell-based, Staphylococcus epidermidis; conditions: for Minimal inhibitory concentration MRSE^e: ATCC 51625, 18 h
In short: (§1)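 Broth microdilution per CLSI in MHB II, final inoculum 5 × 10^5 CFU/mL, with twofold peptoid dilutions. Incubation was 18 h at 37 °C in ambient air. MIC was taken as the lowest concentration without visible growth, from two experiments on different days in technical triplicate.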

[2] = tested on: Methicillin-resistant S. epidermidis ET-024; assay type: cell-based, Staphylococcus epidermidis; conditions: for Minimal inhibitory concentration MRSE^d: Methicillin-resistant ET-024, 18 h
In short: as §1

[3] = tested on: E. coli ATCC 25922; assay type: cell-based, Escherichia coli; conditions: ATCC 25922, 18 h
In short: as §1

[4] = tested on: P. aeruginosa PA01 (H103); assay type: cell-based, Pseudomonas aeruginosa; conditions: H103, 18 h
In short: as §1

[5] = tested on: selected bacterial strains (S. aureus, S. epidermidis, E. coli, P. aeruginosa); assay type: cell-based; conditions: for MICs, range across strains: range matches Gram-positive strains of Table 1
Experimental: All 36 peptoids were tested against seven bacterial strains: five Gram-positive (Staphylococcus aureus ATCC 25923 and ATCC 29213, methicillin-resistant Staphylococcus aureus USA 300, methicillin-resistant Staphylococcus epidermidis ET-024 and ATCC 51625) and two Gram-negative (Escherichia coli ATCC 25922, Pseudomonas aeruginosa PA01) (Table 1).
Bacterial growth inhibition was determined by using broth microdilution according to the Clinical Laboratory Standards Institute[43]. The antibacterial activity of peptoids was tested against S. aureus ATCC 25923, ATCC29213, and methicillin resistant S. aureus USA 300, methicillin resistant S. epidermidis ATCC 51625, a biofilm producing methicillin resistant S. epidermidis ET-024[44], P. aeruginosa Pa01 (H103), and E. coli ATCC 25922. Bacteria, grown on agar plates for 18 h at 37 °C, were diluted to ∼1 × 10^8 CFU/mL in Mueller‐Hinton Broth II (MHB II). Twofold serial dilutions of peptoids in MHB II were inoculated with bacteria to achieve a final concentration of 5 × 10^5 CFU/mL in polypropylene 96 U‐well microtiter plates (Corning 3,897; ThermoFisher Scientific, Roskilde), followed by incubation at 37 °C in ambient air for 18 h. The MIC values were determined as the lowest concentration showing no visible bacterial growth. Experiments were performed twice (in technical triplicates) on 2 different days.

[6] = tested on: S. aureus ATCC 29213; assay type: cell-based, Staphylococcus aureus; conditions: ATCC 29213, 18 h
In short: as §1

[7] = tested on: Methicillin-resistant S. aureus USA 300; assay type: cell-based, Staphylococcus aureus; conditions: USA 300, 18 h
In short: as §1

[8] = tested on: S. aureus ATCC 25923; assay type: cell-based, Staphylococcus aureus; conditions: for Minimal inhibitory concentration SA^a: ATCC 25923, 18 h
In short: as §1

[9] = Critical aggregation concentration from SAXS fit analysis; assay type: physicochemical
Experimental: SAXS experiments of the 10-mer peptoids were performed at the automated BM29 bioSAXS beamline at the European Synchrotron Radiation Facility (ESRF) in Grenoble, France[45]. The data was obtained using an energy of 12.5 keV and a detector distance of 2.87 m, covering a q range ( q=4πsin(θ/2)/λ ), where θ is the scattering angle and λ is the X-ray wavelength) of about 0.0047 to 0.5 Å^−1. The data set was calibrated to an absolute intensity scale using water as a primary standard. 40 µL samples were run through a capillary using the flow mode of the automated sample changer. SAXS data was collected in ten successive frames of 0.5 s each to monitor radiation damage and the data reduction was done using the standard tool at BM29[47].
The SAXS experiments on the fully iodinated 6-, 8-, and 12-mers to determine the CAC of the compounds were performed using a Bruker NANOSTAR equipped with a microfocus X-ray source (IμS Cu, Incoatec, Germany) and a VÅNTEC-2000 detector. Raw scattering data was calibrated to absolute intensity scale using water as a primary standard and radially averaged in order to obtain the 1D scattered intensity profile as a function of the scattering vector, with a wavelength of 1.54 Å.
The modelling fit analysis of the scattering data is explained in detail in the supplementary information.

With NCCCCNCC(=O)N(CC(=O)N(CCCCN)CC(=O)N(CC(=O)N(CCCCN)CC(=O)N(CC(=O)N(CCCCN)CC(=O)N(CC(N)=O)Cc1ccccc1)Cc1ccccc1)Cc1ccccc1)Cc1ccccc1 [Compound 10] (H-[Nlys][Nphe][Nlys][Nphe][Nlys][Nphe][Nlys][Nphe]-NH2) the “Minimal inhibitory concentration MRSE^e” value [1] was 256 µg/mL (≈ 229 µM), the “Minimal inhibitory concentration MRSE^d” value [2] was 256 µg/mL (≈ 229 µM) and the “Minimal inhibitory concentration EC^f” value [3] was 256 µg/mL (≈ 229 µM). For the same molecule, the “Minimal inhibitory concentration PA^g” value [4] was > 512 µg/mL, the “antimicrobial potency against the selected bacterial strains, in words” value [5] was “inactive” and the “Minimal inhibitory concentration SA^b” value [6] was > 512 µg/mL. The “Minimal inhibitory concentration MRSA^c” value [7] was > 512 µg/mL and the “Minimal inhibitory concentration SA^a” value [8] was > 512 µg/mL.

In the case of NCCCCNCC(=O)N(CC(=O)N(CCCCN)CC(=O)N(CC(=O)N(CCCCN)CC(=O)N(CC(=O)N(CCCCN)CC(=O)N(CC(=O)N(CCCCN)CC(=O)N(CC(=O)N(CCCCN)CC(=O)N(CC(N)=O)Cc1ccc(I)cc1)Cc1ccc(I)cc1)Cc1ccc(I)cc1)Cc1ccc(I)cc1)Cc1ccc(I)cc1)Cc1ccc(I)cc1 [Compound 32] (H-[Nlys][NBzl(4-I)Gly][Nlys][NBzl(4-I)Gly][Nlys][NBzl(4-I)Gly][Nlys][NBzl(4-I)Gly][Nlys][NBzl(4-I)Gly][Nlys][NBzl(4-I)Gly]-NH2), the “Minimal inhibitory concentration MRSE^e” value [1] is reported as 16 µg/mL (≈ 6.6 µM), the “Minimal inhibitory concentration MRSE^d” value [2] is reported as 32 µg/mL (≈ 13.2 µM) and the “Minimal inhibitory concentration EC^f” value [3] is reported as > 512 µg/mL. For the same molecule, the “critical aggregation concentration (CAC)” value [9] was 0.4 mg/mL, the “Minimal inhibitory concentration PA^g” value [4] was > 512 µg/mL and the “antimicrobial potency against the selected bacterial strains, in words” value [5] was “the activity was lost”. The “Minimal inhibitory concentration SA^b” value [6] was 128 µg/mL (≈ 52.8 µM), the “Minimal inhibitory concentration MRSA^c” value [7] was 32 µg/mL (≈ 13.2 µM) and the “Minimal inhibitory concentration SA^a” value [8] was 64 µg/mL (≈ 26.4 µM).

With NCCCCNCC(=O)N(CC(=O)N(CCCCN)CC(=O)N(CC(=O)N(CCCCN)CC(=O)N(CC(=O)N(CCCCN)CC(=O)N(CC(=O)N(CCCCN)CC(=O)N(CC(N)=O)Cc1ccc(Br)cc1)Cc1ccccc1)Cc1ccc(Br)cc1)Cc1ccccc1)Cc1ccc(Br)cc1 [Compound 26] (H-[Nlys][N(4-Br-benzyl)Gly][Nlys][Nphe][Nlys][N(4-Br-benzyl)Gly][Nlys][Nphe][Nlys][N(4-Br-benzyl)Gly]-NH2) the “Minimal inhibitory concentration MRSE^e” value [1] was 1 µg/mL (≈ 0.613 µM), the “Minimal inhibitory concentration MRSE^d” value [2] was 1 µg/mL (≈ 0.613 µM) and the “Minimal inhibitory concentration EC^f” value [3] was 256 µg/mL (≈ 157 µM). For the same molecule, the “critical aggregation concentration (CAC)” value [9] was > 5 mg/mL, the “Minimal inhibitory concentration PA^g” value [4] was 512 µg/mL (≈ 314 µM) and the “MICs, range across strains” value [5] was 1 to 8 µg/mL. For the same molecule, the “Minimal inhibitory concentration SA^b” value [6] was 4 µg/mL (≈ 2.45 µM), the “Minimal inhibitory concentration MRSA^c” value [7] was 8 µg/mL (≈ 4.91 µM) and the “Minimal inhibitory concentration SA^a” value [8] was 4 µg/mL (≈ 2.45 µM).

For NCCCCNCC(=O)N(CC(=O)N(CCCCN)CC(=O)N(CC(=O)N(CCCCN)CC(=O)N(CC(N)=O)Cc1ccccc1)Cc1ccccc1)Cc1ccccc1 [Compound 1] (H-[Nlys][Nphe][Nlys][Nphe][Nlys][Nphe]-NH2), the “MIC against MRSE” value ([1]; text b15, strain not named, values match ATCC 51625) was 512 µg/mL (≈ 607 µM), the “Minimal inhibitory concentration MRSE^d” value [2] was 512 µg/mL (≈ 607 µM) and the “Minimal inhibitory concentration EC^f” value [3] was > 512 µg/mL. For the same molecule, the “Minimal inhibitory concentration PA^g” value [4] was > 512 µg/mL, the “antimicrobial potency against the selected bacterial strains, in words” value [5] was “inactive” and the “Minimal inhibitory concentration SA^b” value [6] was > 512 µg/mL. For the same molecule, the “Minimal inhibitory concentration MRSA^c” value [7] was > 512 µg/mL and the “Minimal inhibitory concentration SA^a” value [8] was > 512 µg/mL.

For NCCCCNCC(=O)N(CC(=O)N(CCCCN)CC(=O)N(CC(=O)N(CCCCN)CC(=O)N(CC(=O)N(CCCCN)CC(=O)N(CC(=O)N(CCCCN)CC(=O)N(CC(N)=O)Cc1ccc(Br)cc1)Cc1ccc(Br)cc1)Cc1ccc(Br)cc1)Cc1ccc(Br)cc1)Cc1ccc(Br)cc1 [Compound 22] (H-[Nlys][N(4-Br-benzyl)Gly][Nlys][N(4-Br-benzyl)Gly][Nlys][N(4-Br-benzyl)Gly][Nlys][N(4-Br-benzyl)Gly][Nlys][N(4-Br-benzyl)Gly]-NH2), the “Minimal inhibitory concentration MRSE^e” value [1] was 1 µg/mL (≈ 0.559 µM), the “Minimal inhibitory concentration MRSE^d” value [2] was 1 µg/mL (≈ 0.559 µM) and the “fold increase of activity against MRSE” value ([2]; versus non-halogenated control of same length, values match ET-024) was 128 fold. The “Minimal inhibitory concentration EC^f” value [3] was 64 µg/mL (≈ 35.8 µM), the “critical aggregation concentration (CAC)” value [9] was 2.3 mg/mL and the “Minimal inhibitory concentration PA^g” value [4] was > 512 µg/mL. The “MICs, range across strains” value [5] was 1 to 4 µg/mL, the “Minimal inhibitory concentration SA^b” value [6] was 2 µg/mL (≈ 1.12 µM) and the “Minimal inhibitory concentration MRSA^c” value [7] was 4 µg/mL (≈ 2.24 µM). The “Minimal inhibitory concentration SA^a” value [8] was 2 µg/mL (≈ 1.12 µM) and the “fold increase of activity against S. aureus” value ([8]; versus non-halogenated control of same length) was > 256 fold.

With NCCCCNCC(=O)N(CC(=O)N(CCCCN)CC(=O)N(CC(=O)N(CCCCN)CC(=O)N(CC(=O)N(CCCCN)CC(=O)N(CC(=O)N(CCCCN)CC(=O)N(CC(N)=O)Cc1ccc(I)cc1)Cc1ccc(I)cc1)Cc1ccc(I)cc1)Cc1ccc(I)cc1)Cc1ccc(I)cc1 [Compound 23] (H-[Nlys][NBzl(4-I)Gly][Nlys][NBzl(4-I)Gly][Nlys][NBzl(4-I)Gly][Nlys][NBzl(4-I)Gly][Nlys][NBzl(4-I)Gly]-NH2) the “Minimal inhibitory concentration MRSE^e” value [1] was 8 µg/mL (≈ 3.95 µM), the “Minimal inhibitory concentration MRSE^d” value [2] was 4 µg/mL (≈ 1.98 µM) and the “Minimal inhibitory concentration EC^f” value [3] was > 512 µg/mL. For the same molecule, the “critical aggregation concentration (CAC)” value [9] was 0.4 mg/mL, the “Minimal inhibitory concentration PA^g” value [4] was > 512 µg/mL and the “antimicrobial potency against the selected bacterial strains, in words” value [5] was “the activity was lost”. The “Minimal inhibitory concentration SA^b” value [6] was 32 µg/mL (≈ 15.8 µM), the “Minimal inhibitory concentration MRSA^c” value [7] was 16 µg/mL (≈ 7.91 µM) and the “Minimal inhibitory concentration SA^a” value [8] was 32 µg/mL (≈ 15.8 µM).

In the case of NCCCCNCC(=O)N(CC(=O)N(CCCCN)CC(=O)N(CC(=O)N(CCCCN)CC(=O)N(CC(=O)N(CCCCN)CC(=O)N(CC(=O)N(CCCCN)CC(=O)N(CC(N)=O)Cc1ccccc1)Cc1ccccc1)Cc1ccccc1)Cc1ccccc1)Cc1ccccc1 [Compound 19] (H-[Nlys][Nphe][Nlys][Nphe][Nlys][Nphe][Nlys][Nphe][Nlys][Nphe]-NH2), the “Minimal inhibitory concentration MRSE^e” value [1] is reported as 128 µg/mL (≈ 91.8 µM), the “Minimal inhibitory concentration MRSE^d” value [2] is reported as 128 µg/mL (≈ 91.8 µM) and the “Minimal inhibitory concentration EC^f” value [3] is reported as 256 µg/mL (≈ 184 µM). For the same molecule, the “critical aggregation concentration (CAC)” value [9] was > 5 mg/mL, the “Minimal inhibitory concentration PA^g” value [4] was 512 µg/mL (≈ 367 µM) and the “antimicrobial potency against the selected bacterial strains, in words” value [5] was “inactive”. For the same molecule, the “Minimal inhibitory concentration SA^b” value [6] was > 512 µg/mL, the “Minimal inhibitory concentration MRSA^c” value [7] was > 512 µg/mL and the “Minimal inhibitory concentration SA^a” value [8] was > 512 µg/mL.

With NCCCCNCC(=O)N(CC(=O)N(CCCCN)CC(=O)N(CC(=O)N(CCCCN)CC(=O)N(CC(=O)N(CCCCN)CC(=O)N(CC(=O)N(CCCCN)CC(=O)N(CC(=O)N(CCCCN)CC(=O)N(CC(N)=O)Cc1ccccc1)Cc1ccccc1)Cc1ccccc1)Cc1ccccc1)Cc1ccccc1)Cc1ccccc1 [Compound 28] (H-[Nlys][Nphe][Nlys][Nphe][Nlys][Nphe][Nlys][Nphe][Nlys][Nphe][Nlys][Nphe]-NH2) the “Minimal inhibitory concentration MRSE^e” value [1] was 32 µg/mL (≈ 19.2 µM), the “Minimal inhibitory concentration MRSE^d” value [2] was 64 µg/mL (≈ 38.3 µM) and the “Minimal inhibitory concentration EC^f” value [3] was 128 µg/mL (≈ 76.7 µM). The “Minimal inhibitory concentration PA^g” value [4] was 128 µg/mL (≈ 76.7 µM), the “antimicrobial potency against the selected bacterial strains, in words” value [5] was “inactive” and the “Minimal inhibitory concentration SA^b” value [6] was 512 µg/mL (≈ 307 µM). The “Minimal inhibitory concentration MRSA^c” value [7] was 512 µg/mL (≈ 307 µM) and the “Minimal inhibitory concentration SA^a” value [8] was > 512 µg/mL.
